# Patent US20200255828A1, “METHODS AND COMPOSITIONS FOR ALTERING FUNCTION AND STRUCTURE OF CHROMATIN LOOPS AND/OR DOMAINS” (THE BROAD INSTITUTE, INC., priority 2017, published 2020)
# System: histone modifications
# Test: ChIP-Seq for histone modifications before and after auxin
# Assay type: cell-based, human
# From the text: Applicants first examined the effects of cohesin degradation on key epigenomic features associated with genome folding, using ChIP-Seq. Applicants examined the distribution of CTCF (associated with loop anchors) and the histone modifications H3K27me3, H3K36me3, H3K27Ac, H3K4me1, H3K4me3, H3K9me3, H4K16Ac, H4K20me3, H3K79me2, and H2.AZ (associated with compartment intervals). Cohesin loss had little effect on these features (FIG. 1C,D; FIG. 8C-E, see Methods).
# ChIP-Seq for H3K27Ac, H3K4me1, H3K4me3, H3K36me3, H3K27me3, H3K9me3, H4K16Ac, H4K20me3, H3K79me2, and H2.AZ was performed using a native ChIP-Seq protocol. Chromatin from untreated HCT-116 RAD21-mAC cells or cells treated for 6 hours with 500 uM IAA was digested with Mnase (Sigma) in digestion buffer (50 mM Tris-HCl, pH7.6, 1 mM CaCl2), 0.2% Triton X-100, butyrate 5 mM) for 5′ at 37° C. and dialyzed against RIPA buffer for 2 hrs at 4° C. Five microgram of respective antibody was incubated with 40 μl of Dynabeads Protein A (or G) for 40 min at room temperature. Antibody-bound beads were added to 500 μl of sonicated or Mnase-digested chromatin, incubated at 4° C. overnight, and washed twice with RIPA buffer, twice with RIPA buffer containing 0.3 M NaCl, twice with LiCl buffer (0.25 M LiCl, 0.5% Igepal-630, 0.5% sodium deoxycholate), once with TE (pH 8.0) plus 0.2% Triton X-100, and once with TE (pH 8.0). ChIP DNA was purified by phenol-chloroform extraction followed by ethanol precipitation. Libraries were prepped for Illumina sequencing and 50 bp single-end reads were sequenced on a HiSeq2000 or 2500 (Illumina). Applicants also performed ChIP-Seq for RAD21 and CTCF following the same protocol as above, except that cells were fixed with 1% formaldehyde for 10 minutes at 37° C. and fixation was quenched by the addition of glycine to a final concentration of 125 mM for 10 minutes. The fixed cells were sonicated using a Branson sonifier at amplitude 35%, 12 cycles of 20 seconds of sonication and 30 seconds of pause. Antibody was added to the sonicated chromatin as above and the samples were further processed as above.
# All ChIP-Seq data was aligned to hg19 with BWA […] (Li and Durbin, 2010), deduplicated using PicardTools, and analyzed with MACS 2.0 (Liu, 2014). All data was normalized against the corresponding input control using the ‘-c’ option of MACS 2.0. ChIP-Seq peaks were called using the ‘callpeak’ function of MACS 2.0 with default parameters. For H3K4me3 and H3K4me1, Applicants additionally used the ‘broad’ option of MACS 2.0 and merged close by peaks to identify broad peaks. […] Finally, in order to annotate broad-source domains, Applicants utilized RSEG (Song and Smith, 2011) using the following flags: ‘-b 25000’, ‘-i 20’, ‘-mode 2’.
# Applicants calculated average signal over 5 kb bins across the entire genome and correlated signal between ChIP-Seq experiments before and after auxin treatment for each of CTCF, H3K27me3, H3K9me3, H3K4me1, H3K4me3 and H3K27Ac.
# Additionally, Applicants examined overlaps of our ChIP-Seq peak annotations before and after auxin treatment for H3K4me3, H3K4me1 and H3K27Ac. […]
compound,measurement,setting,value
"O=C(O)Cc1c[nH]c2ccccc12 [auxin, indole-3-acetic acid]",overlap of H3K4me1 ChIP-Seq peaks called before and after auxin treatment,,85%
same,overlap of H3K4me3 ChIP-Seq peaks called before and after auxin treatment,,90%
same,overlap of H3K27Ac ChIP-Seq peaks called before and after auxin treatment,,81%
same,"Spearman's r of ChIP-Seq signal before vs after auxin treatment, H2.AZ",5 kb bins genome-wide,0.96
same,"Spearman's r of ChIP-Seq signal before vs after auxin treatment, H3K4me1",5 kb bins genome-wide,0.94
same,"Spearman's r of ChIP-Seq signal before vs after auxin treatment, H3K4me3",5 kb bins genome-wide,0.70
same,"Spearman's r of ChIP-Seq signal before vs after auxin treatment, H3K9me3",5 kb bins genome-wide,0.95
same,"Spearman's r of ChIP-Seq signal before vs after auxin treatment, H3K27Ac",5 kb bins genome-wide,0.90
same,"Spearman's r of ChIP-Seq signal before vs after auxin treatment, H3K27me3",5 kb bins genome-wide,0.95
same,"Spearman's r of ChIP-Seq signal before vs after auxin treatment, H3K36me3",5 kb bins genome-wide,0.94
same,"Spearman's r of ChIP-Seq signal before vs after auxin treatment, H3K79me2",5 kb bins genome-wide,0.96
same,"Spearman's r of ChIP-Seq signal before vs after auxin treatment, H4K16Ac",5 kb bins genome-wide,0.95
same,"Spearman's r of ChIP-Seq signal before vs after auxin treatment, H4K20me3",5 kb bins genome-wide,0.89
